This is an account of results in patent US9682982B2, “Inhibitors of adapter associated kinase 1, compositions comprising them, and methods of their use” (Lexicon Pharmaceuticals, Inc., priority 2014, dated 2017).

The target of experiment [1] is AAK1 (Homo sapiens, UniProt Q2M2I8). Conditions: cited from earlier work.
The subject of experiment [2] is PC12 cells. The conditions noted are these: Kuai et al. 2011; cited from earlier work.
The target in experiment [3] is T1, AAK1 (full length human, NCBI accession no. NP_055726.2) (Homo sapiens, UniProt Q2M2I8). The experiment in a line: HEK281 Cell-Based Assay (phospho-mu2 Western blot in HEK293F cells transfected with AAK1 and AP2M1). Details: HA; expressed in transfected cells; host or cells: HEK293F. Conditions: 3 hours incubation, read-out: HEK281 cell-based assay IC50 (inhibition of mu2 phosphorylation). Here is the method: HEK293F cells were cultured in media containing DMEM (Gibco, cat. #11965), 10% FBS (SAFC Biosciences, cat. #12103C), 1×GPS (glutamine, penicillin and streptomycin). On day one, cells were plated on a 10 cm dish so that they are ˜80% confluent at time of transfection. Roughly 12 million cells were in a 10 cm dish at time of transfection. On day two, each dish was transfected with 48 ug DNA and 144 ul Lipofectamine 2000 (Invitrogen, cat. #11668-019). The DNA was comprised of a mixture (per 10 cm dish) containing 3 ug AAK1/HA/pIRES (full length human, NCBI accession no. NP_055726.2), 45 μg Flag/AP2MI/pcDNA (full length human), and 1.5 ml OPTI-MEM. The Lipofectamine 2000 is made up of a mixture (per 10 cm dish) containing 144 μl Lipofectamine 2000 and 1.5 ml OPTI-MEM. Each mixture was transferred to individual 15 ml tubes and incubated at RT for 5 minutes, and then the two mixes were combined and incubated at RT for 20 minutes. Growth media was then aspirated from each 10 cm plate and replaced with 10 ml of DMEM+10% FBS (no GPS). Finally, 3 ml DNA/Lipofectamine mix was added to each 10 cm dish and mix gently followed by incubate of plate overnight at 37° C. and 5% CO2.
T1 sequence (Q2M2I8 1-863 isoform Q2M2I8-2): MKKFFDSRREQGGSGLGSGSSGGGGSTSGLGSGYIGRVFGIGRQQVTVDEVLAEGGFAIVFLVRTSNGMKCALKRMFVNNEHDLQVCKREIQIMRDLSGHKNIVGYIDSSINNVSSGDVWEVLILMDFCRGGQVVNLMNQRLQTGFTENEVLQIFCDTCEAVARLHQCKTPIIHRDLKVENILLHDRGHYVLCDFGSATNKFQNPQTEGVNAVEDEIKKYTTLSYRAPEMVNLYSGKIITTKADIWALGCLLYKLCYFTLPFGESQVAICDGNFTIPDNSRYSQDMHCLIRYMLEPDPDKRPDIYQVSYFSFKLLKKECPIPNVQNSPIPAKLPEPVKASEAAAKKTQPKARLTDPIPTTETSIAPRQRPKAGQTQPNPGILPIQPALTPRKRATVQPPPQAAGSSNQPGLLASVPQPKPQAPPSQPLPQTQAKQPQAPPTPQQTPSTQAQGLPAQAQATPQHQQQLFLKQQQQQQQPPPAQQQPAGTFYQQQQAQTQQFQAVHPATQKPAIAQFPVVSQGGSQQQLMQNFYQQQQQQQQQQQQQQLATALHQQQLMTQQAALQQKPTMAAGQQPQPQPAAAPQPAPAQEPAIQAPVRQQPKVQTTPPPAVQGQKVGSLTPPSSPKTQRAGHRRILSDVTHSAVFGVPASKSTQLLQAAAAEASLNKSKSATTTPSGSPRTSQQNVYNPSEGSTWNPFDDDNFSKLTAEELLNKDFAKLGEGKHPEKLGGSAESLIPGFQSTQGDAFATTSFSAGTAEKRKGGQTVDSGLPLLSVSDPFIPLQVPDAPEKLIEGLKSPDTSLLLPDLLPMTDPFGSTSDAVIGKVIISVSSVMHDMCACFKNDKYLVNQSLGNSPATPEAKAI
On day three, compounds were diluted in 100% DMSO at 1000× final concentration, followed by 3-fold serial dilutions for a total of 5 concentrations tested. Four compounds were tested per 10 cm dish. […]
(In general: In western blotting, separated proteins are transferred to a membrane and probed.)

Experiment [4] has as its system tactile allodynia after spinal nerve ligation in mice. The experiment in a line: Mouse Chung Assay (spinal nerve ligation, von Frey tactile allodynia). The experiment is classed as in vivo. Conditions: P<0.0001 in RM ANOVA, FIG. 6. The source says: The compound 3-methyloxetan-3-yl-4-(3-(2-methoxypyridin-3-yl)pyrazolo[1,5-a]pyrimidin-5-yl)piperazine-1-carboxylate was studied in the Chung assay. See Chaplan S R, Bach F W, Pogrel J W, Chung J M, Yaksh T L., Quantitative assessment of tactile allodynia in the rat paw, J Neurosci Methods 1994; 53:55-63; Chung J M, Kim H K, Chung K., Segmental spinal nerve ligation model of neuropathic pain, Methods Mol Med. 2004; 99:35-45.
Wild-type hybrid (C57BL/6J-Tyr^c-Brd×129S5/SvEvBrd) male mice were between 5-7 weeks of age at the time of spinal nerve ligation by the conventional Chung protocol. Spinal nerve ligation was carried out according to the procedure devised by Kim and Chung with modifications. Briefly, mice were anesthetized with isoflurane (2% at the oxygen flow rate of […]). A skin incision (1 cm) was made 1 mm to the left of the dorsal midline, using the level of iliac crests as the mid point of the incision. […] In an initial experiment using hybrid mice, the presumptive locations of spinal nerve L5 and L6 were determined by using the sacroiliac junction as the landmark to locate L6, as previously described in SNL models in rats and mice. […] Mice were individually housed after the procedure and were monitored until complete recovery from anesthesia. […]

The target of experiment [5] is T1, AAK1 (full length human, NCBI accession no. NP_055726.2). The experiment in a line: P81 Filter Plate Assay. Conditions: 0.2 nM AAK1 and 2 μM ATP in 2× mixes, 33P-ATP, one hour at RT; read-out: P81 assay result (inhibition of AAK1 phosphorylation of Mu2). The experiment is classed as biochemical. Details: NP_055726.2. Here is the method: Compounds were serially diluted into a Labcyte LDV plate (Labcyte, cat #LP-0200) using a Mutiprobe (PerkinElmer) and Biomek FX (Beckman Coulter) so that the highest compound concentration was at 96 μM. Compounds were then pinged (75 nL per well) into a Greiner 384-well reaction plate (Greiner, #781076) using an ECHO 550 Liquid Handler (Labcyte). A total of 12 μl reaction buffer (IMAP buffer containing Tween and DTT, from Molecular Devices) was then added to each well of columns 1 and 13 for the negative controls and 12 μl of 2×AAK1 (0.2 nM full-length human protein, NCBI accession no. NP_055726.2) was added to the remaining wells. Enzyme was then pre-incubated with compound for 10 minutes at RT. Reactions were initiated upon Minitrak (PerkinElmer) addition of 12 μl substrate mix containing 2× Mu2 (0.2 μM, full length human protein), 2× cold ATP (2 μM), and 1.3 μCi of hot ^33P-ATP. Reactions proceeded for one hour at RT. Meanwhile, Millipore 384-well P81 filter plates (Millipore, catalog #MZPHNOW10) were placed on a plate washer (Zoom ZW, from Titertek) and pre-wet with 50 μl 1% phosphoric acid. […] The bottom of each filter plate was sealed followed by addition of 20 μl Microscint 40 to each well, sealing the top of the plates with Flashplate cover, and then waiting one hour until reading on the TopCount (PerkinElmer).

Experiment [6] concerns formalin-induced nociception in male C57 mice. The experiment in a line: Formalin Assay (paw flinching). The experiment is classed as in vivo, mouse. Conditions: male C57 mice, 1, 3, 10 and 30 mpk, given 30 minutes prior to formalin; one-way ANOVA P<0.01 dose effect; FIG. 4 and 5. Here is the method: Mice were tested for nociception with Automatic Nociception Analyzers (purchased from the Ozaki lab at University of California, San Diego). A metal band was placed around the left hind paw of each mouse with superglue 30 minutes prior to testing. After the 30-minute acclimation period, 20 μl of 5% formalin was subcutaneously injected in the dorsal surface of the left hind paw. Mice were individually housed in cylindrical chambers for 45 minutes. Fresh 5% formalin solution was prepared by diluting formaldehyde (Formalde-fresh 20%, Fisher Scientific, Fair Lawn, N.J.) with distilled water. Investigatory compounds were administered 30 minutes prior to formalin injection.
A computer software recorded flinches per minute, total flinches for Phase I (acute phase=first 8 minutes), and total flinches for Phase II (tonic phase between 20-40 minutes) through an electromagnetic field. See Yaksh T L, Ozaki G, McCumber D, Rathbun M, Svensson C, Malkmus S, Yaksh M C. An automated flinch detecting system for use in the formalin nociceptive bioassay. J Appl Physiol., 2001; 90:2386-402.

AAK1, sequence (Q2M2I8 whole entry, species assumed): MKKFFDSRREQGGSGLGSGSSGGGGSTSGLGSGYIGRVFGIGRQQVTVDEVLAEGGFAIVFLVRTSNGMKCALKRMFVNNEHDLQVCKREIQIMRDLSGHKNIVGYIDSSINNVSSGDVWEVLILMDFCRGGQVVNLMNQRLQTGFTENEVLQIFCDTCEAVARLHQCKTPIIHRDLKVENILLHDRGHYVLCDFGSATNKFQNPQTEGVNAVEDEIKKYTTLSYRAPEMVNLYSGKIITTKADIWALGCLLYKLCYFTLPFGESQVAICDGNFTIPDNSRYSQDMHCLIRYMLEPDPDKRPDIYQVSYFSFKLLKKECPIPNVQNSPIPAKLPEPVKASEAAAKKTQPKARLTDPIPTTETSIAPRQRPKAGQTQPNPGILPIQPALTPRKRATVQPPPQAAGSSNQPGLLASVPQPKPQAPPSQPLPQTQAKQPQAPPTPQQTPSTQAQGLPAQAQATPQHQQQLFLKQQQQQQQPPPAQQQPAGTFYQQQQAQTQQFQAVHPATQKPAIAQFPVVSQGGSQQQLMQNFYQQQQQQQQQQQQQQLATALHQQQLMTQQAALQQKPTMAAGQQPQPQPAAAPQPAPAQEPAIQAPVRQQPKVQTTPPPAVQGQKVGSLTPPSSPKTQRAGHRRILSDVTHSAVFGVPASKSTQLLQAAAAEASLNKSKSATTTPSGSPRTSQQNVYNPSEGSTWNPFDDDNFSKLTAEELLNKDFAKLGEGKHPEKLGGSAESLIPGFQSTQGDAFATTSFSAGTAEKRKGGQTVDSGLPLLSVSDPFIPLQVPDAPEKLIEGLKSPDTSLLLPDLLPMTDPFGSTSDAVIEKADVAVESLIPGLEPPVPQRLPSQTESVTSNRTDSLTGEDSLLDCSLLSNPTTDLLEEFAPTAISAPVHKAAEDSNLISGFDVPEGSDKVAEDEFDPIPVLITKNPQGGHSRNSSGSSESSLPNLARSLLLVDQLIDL

With `COC(=O)[C@@]1(O)C[C@H]2O[C@]1(C)n1c3ccccc3c3c4c(c5c6ccccc6n2c5c31)C(=O)NC4` [K252a], in experiment [1], the “Effect on AAK1 kinase activity” value is on record as “inhibits AAK1 kinase activity”. The “Effect on Neuregulin-1 induced neurite outgrowth” value in experiment [2] was “potentiation of Neuregulin-1 induced neurite outgrowth”.
As to `COc1ncccc1-c1cnn2ccc(N3CCN(C(=O)OC4(C)COC4)CC3)nc12` [3-methyloxetan-3-yl-4-(3-(2-methoxypyridin-3-yl)pyrazolo[1,5-a]pyrimidin-5-yl)piperazine-1-carboxylate], the IC50 in experiment [3] turned out to be 4.7 nM; in experiment [5], 0.9 nM. For the same compound, the “Effect in the Chung assay (von Frey 50% withdraw threshold)” value in experiment [4] is “dose-dependent, significantly significant effect”. Besides, the “Formalin phase 2 (tonic phase) flinches versus vehicle” value in experiment [6] was “dramatic effect”.
